Laboratory results published in PubChem BioAssay (NCI).
Several values for one entry are separate records, joined by “and”; a condition that tells them apart may be missing. Equal values may be shown once.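 1) Cells in 96-well plates. 2) Compound, 48 h, 5 concentrations. 3) Linear interpolation between surrounding doses. 4) Unreached endpoint = highest concentration. GI50 marks 50% less growth. Definition used: TGI = concentration required for complete inhibition of growth.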

Experiments:
Experiment in all cases: NCI anticancer screen, dose series, 48 h
MALME-3M melanoma = tested on: MALME-3M melanoma
HCT-116 colon = tested on: HCT-116 colon
CAKI-1 renal = tested on: CAKI-1 renal
UO-31 renal = tested on: UO-31 renal
SF-539 CNS = tested on: SF-539 CNS
UACC-62 melanoma = tested on: UACC-62 melanoma
786-0 renal = tested on: 786-0 renal
HT29 colon = tested on: HT29 colon
HCT-15 colon = tested on: HCT-15 colon
MDA-MB-435 = tested on: MDA-MB-435

`CC(C)=Nn1cnc(C(=N)C#N)c1N` showed a TGI (MALME-3M melanoma) of over 100 µM, a TGI (HCT-116 colon) of over 100 µM and a TGI (CAKI-1 renal) of over 100 µM. It also gave a TGI (UO-31 renal) of over 100 µM, a TGI (SF-539 CNS) of over 100 µM and a TGI (UACC-62 melanoma) of over 100 µM. It also gave a TGI (786-0 renal) of over 100 µM, a TGI (HT29 colon) of over 100 µM and a TGI (HCT-15 colon) of over 100 µM.

`Oc1ccc(Cl)cc1C1=N/C(=N\C/N=C2\N=C(c3cc(Cl)ccc3O)CC(c3ccccc3)N2)NC(c2ccccc2)C1` (stereo not drawn) showed a TGI (MDA-MB-435) of over 100 µM, a TGI (HCT-116 colon) of over 100 µM and a TGI (CAKI-1 renal) of over 100 µM. The TGI (UO-31 renal) was over 100 µM, the TGI (SF-539 CNS) was over 100 µM and the TGI (UACC-62 melanoma) was over 100 µM. It also gave a TGI (786-0 renal) of over 100 µM, a TGI (HT29 colon) of over 100 µM and a TGI (HCT-15 colon) of over 100 µM.

For `CC(=O)Nc1ccc(C(=O)N2N=C(C)/C(=C/c3cccc([N+](=O)[O-])c3)C2=O)cc1`, the TGI (MALME-3M melanoma) was over 100 µM, the TGI (HCT-116 colon) was over 100 µM and the TGI (CAKI-1 renal) was over 100 µM. For the same compound, the TGI (UO-31 renal) was over 100 µM, the TGI (SF-539 CNS) was over 100 µM and the TGI (786-0 renal) was over 100 µM. It also gave a TGI (HT29 colon) of over 100 µM.

With `Cc1ccc(OCC2OC(n3cnc4c(Cl)ncnc43)CC2Oc2ccc(C)cc2)cc1` (stereo not drawn) the GI50 (MDA-MB-435) was 5.84 µM and 2 µM, the TGI (MDA-MB-435) was 21 µM and 16.4 µM and the GI50 (MALME-3M melanoma) was 20.2 µM and 2.68 µM. For the same compound, the TGI (MALME-3M melanoma) was 55.8 µM and 8.66 µM, the GI50 (HCT-116 colon) was 2400 nM and 14300 nM and the TGI (HCT-116 colon) was 7.13 µM and 38.2 µM. The TGI (CAKI-1 renal) was 4.18 µM and 5.78 µM, the GI50 (UO-31 renal) was 8.08 µM and 1.84 µM and the TGI (UO-31 renal) was 15.8 µM and 3.29 µM. For the same compound, the TGI (SF-539 CNS) was 50.6 µM and 36.1 µM, the GI50 (UACC-62 melanoma) was 9.01 µM and 22.8 µM and the TGI (UACC-62 melanoma) was 25.9 µM and > 59 µM. For the same compound, the TGI (786-0 renal) was > 73.4 µM and 51.7 µM, the GI50 (HT29 colon) was 1690 nM and 6150 nM and the TGI (HT29 colon) was 3.13 µM and 21.2 µM. For the same compound, the GI50 (HCT-15 colon) was 1.94 µM and 11.7 µM and the TGI (HCT-15 colon) was 4.28 µM and 41.6 µM.

Work on `C=CCC1(CC)C(=O)NC(=O)NC1=O` yielded a TGI (MALME-3M melanoma) of over 100 µM, a TGI (HCT-116 colon) of over 100 µM and a TGI (UO-31 renal) of over 100 µM. The TGI (SF-539 CNS) was over 100 µM, the TGI (UACC-62 melanoma) was over 100 µM and the TGI (786-0 renal) was over 100 µM. The TGI (HCT-15 colon) was over 100 µM.

For `COc1cc(OC)cc(-c2n/c(=C\c3c(O)[nH]c4ccc(Cl)cc34)cc3c2=Nc2ccccc2-3)c1`, the GI50 (MDA-MB-435) was 14 µM, the TGI (MDA-MB-435) was 35.4 µM and the GI50 (MALME-3M melanoma) was 21.6 µM. For the same compound, the TGI (MALME-3M melanoma) was 44.7 µM, the GI50 (HCT-116 colon) was 1900 nM and the TGI (HCT-116 colon) was 3.43 µM. It also gave a GI50 (CAKI-1 renal) of 12.9 µM, a TGI (CAKI-1 renal) of 30.5 µM and a GI50 (UO-31 renal) of 12.5 µM. It also gave a TGI (UO-31 renal) of 29.2 µM, a GI50 (SF-539 CNS) of 20.4 µM and a TGI (SF-539 CNS) of 45.8 µM. It also gave a GI50 (UACC-62 melanoma) of 16.9 µM, a TGI (UACC-62 melanoma) of 35.2 µM and a GI50 (HT29 colon) of 2720 nM. The TGI (HT29 colon) was 6.22 µM, the GI50 (HCT-15 colon) was 6.58 µM and the TGI (HCT-15 colon) was 27.7 µM.

Compound `COP(=O)(OC)C(NC=O)P(=O)(OC)OC` has a TGI (MDA-MB-435) of over 100 µM, a TGI (MALME-3M melanoma) of over 100 µM and a TGI (HCT-116 colon) of over 100 µM. The TGI (CAKI-1 renal) was over 100 µM, the TGI (UO-31 renal) was over 100 µM and the TGI (SF-539 CNS) was over 100 µM. For the same compound, the TGI (UACC-62 melanoma) was over 100 µM, the TGI (786-0 renal) was over 100 µM and the TGI (HT29 colon) was over 100 µM. It also gave a TGI (HCT-15 colon) of over 100 µM.

With `O=C(N/N=C/c1ccc(Cl)cc1)c1cc(I)cc(I)c1O` the TGI (MDA-MB-435) was over 100 µM, the TGI (HCT-116 colon) was over 100 µM and the TGI (CAKI-1 renal) was over 100 µM. For the same compound, the TGI (UO-31 renal) was over 100 µM, the TGI (SF-539 CNS) was over 100 µM and the TGI (786-0 renal) was over 100 µM. For the same compound, the TGI (HT29 colon) was over 100 µM and the TGI (HCT-15 colon) was over 100 µM.

`Cc1ccc(SC[C@@]2(C(F)F)NC(=O)NC2=O)cc1` showed a TGI (MDA-MB-435) of over 100 µM, a TGI (MALME-3M melanoma) of over 100 µM and a TGI (HCT-116 colon) of over 100 µM. It also gave a TGI (CAKI-1 renal) of over 100 µM, a TGI (UO-31 renal) of over 100 µM and a TGI (UACC-62 melanoma) of over 100 µM. The TGI (786-0 renal) was over 100 µM, the TGI (HT29 colon) was over 100 µM and the TGI (HCT-15 colon) was over 100 µM.

For `CSc1nc(C#N)c(N)n1C`, the TGI (MDA-MB-435) was over 100 µM, the TGI (MALME-3M melanoma) was over 100 µM and the TGI (HCT-116 colon) was over 100 µM. The TGI (CAKI-1 renal) was over 100 µM, the TGI (UO-31 renal) was over 100 µM and the TGI (SF-539 CNS) was over 100 µM. It also gave a TGI (UACC-62 melanoma) of over 100 µM, a TGI (786-0 renal) of over 100 µM and a TGI (HCT-15 colon) of over 100 µM.
